Earlier results, collected in paper PMC9851200, “Multiparameter phenotypic screening for endogenous TFEB and TFE3 translocation identifies novel chemical series modulating lysosome function” (Autophagy, 2022).

Tests used:
Design in all cases: method as in original PKIS2 published data
[1] = target: T1, kinases (KINOMEscan panel) (Homo sapiens, UniProt Q6ZN16); details: Published KINOMEscan; ref original PKIS2 published data; cited from earlier work
T1 sequence (Q6ZN16 1-1313): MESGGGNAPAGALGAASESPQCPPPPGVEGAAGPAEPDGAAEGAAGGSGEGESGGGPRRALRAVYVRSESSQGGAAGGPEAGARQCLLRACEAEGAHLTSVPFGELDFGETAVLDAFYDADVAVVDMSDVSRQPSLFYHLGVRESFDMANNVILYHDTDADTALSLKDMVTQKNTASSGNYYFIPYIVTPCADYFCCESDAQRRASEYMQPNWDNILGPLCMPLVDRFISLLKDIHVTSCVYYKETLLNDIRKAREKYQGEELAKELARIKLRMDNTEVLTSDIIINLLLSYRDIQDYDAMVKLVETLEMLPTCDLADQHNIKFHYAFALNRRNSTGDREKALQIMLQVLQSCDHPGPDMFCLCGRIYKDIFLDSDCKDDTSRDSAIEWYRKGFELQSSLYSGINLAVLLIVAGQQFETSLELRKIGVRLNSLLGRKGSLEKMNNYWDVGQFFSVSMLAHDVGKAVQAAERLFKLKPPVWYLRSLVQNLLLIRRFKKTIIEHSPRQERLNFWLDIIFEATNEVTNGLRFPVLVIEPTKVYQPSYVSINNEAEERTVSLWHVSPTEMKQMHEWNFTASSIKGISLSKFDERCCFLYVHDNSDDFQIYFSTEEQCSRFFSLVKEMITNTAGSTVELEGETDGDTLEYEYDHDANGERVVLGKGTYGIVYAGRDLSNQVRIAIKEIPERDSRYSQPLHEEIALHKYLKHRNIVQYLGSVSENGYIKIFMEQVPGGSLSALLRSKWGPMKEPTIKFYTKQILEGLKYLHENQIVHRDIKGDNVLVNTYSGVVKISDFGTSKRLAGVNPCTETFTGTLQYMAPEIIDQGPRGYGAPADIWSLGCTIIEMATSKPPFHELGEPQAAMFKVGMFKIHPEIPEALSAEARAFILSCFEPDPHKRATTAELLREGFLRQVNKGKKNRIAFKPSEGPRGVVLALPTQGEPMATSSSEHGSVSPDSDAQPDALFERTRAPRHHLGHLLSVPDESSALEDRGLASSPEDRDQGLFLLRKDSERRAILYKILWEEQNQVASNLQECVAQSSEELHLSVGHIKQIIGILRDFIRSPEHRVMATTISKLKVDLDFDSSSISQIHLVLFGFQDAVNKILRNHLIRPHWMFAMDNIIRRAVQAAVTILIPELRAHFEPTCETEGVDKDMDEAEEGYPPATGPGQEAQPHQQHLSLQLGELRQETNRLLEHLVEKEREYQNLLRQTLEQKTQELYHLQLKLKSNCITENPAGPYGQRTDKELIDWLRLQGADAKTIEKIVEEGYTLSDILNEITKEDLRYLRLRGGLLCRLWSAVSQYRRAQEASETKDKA

[2] = target: kinases (KINOMEscan panel) (Homo sapiens, UniProt P19525); details: kinase ElF2AK2; Published KINOMEscan; ref original PKIS2 published data; cited from earlier work
Sequence of kinases (KINOMEscan panel) (Homo sapiens, UniProt P19525) (P19525 whole entry): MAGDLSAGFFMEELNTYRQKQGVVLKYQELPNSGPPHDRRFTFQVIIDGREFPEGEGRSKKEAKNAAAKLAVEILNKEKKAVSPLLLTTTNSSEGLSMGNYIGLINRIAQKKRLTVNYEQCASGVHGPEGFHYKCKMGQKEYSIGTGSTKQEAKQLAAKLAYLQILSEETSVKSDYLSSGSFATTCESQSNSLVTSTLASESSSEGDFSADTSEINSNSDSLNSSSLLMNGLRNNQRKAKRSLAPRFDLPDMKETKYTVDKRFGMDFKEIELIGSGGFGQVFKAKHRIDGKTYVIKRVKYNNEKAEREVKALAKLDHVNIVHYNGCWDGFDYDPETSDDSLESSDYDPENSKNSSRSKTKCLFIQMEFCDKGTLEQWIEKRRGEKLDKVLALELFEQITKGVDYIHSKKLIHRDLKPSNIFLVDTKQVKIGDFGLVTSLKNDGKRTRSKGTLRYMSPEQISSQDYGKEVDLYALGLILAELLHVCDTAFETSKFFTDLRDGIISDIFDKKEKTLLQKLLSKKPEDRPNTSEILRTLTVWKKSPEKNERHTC

[3] = target: T2, kinases (KINOMEscan panel) (Homo sapiens, UniProt Q6XUX3); details: DSTYK; Published KINOMEscan; ref original PKIS2 published data; cited from earlier work
T2 sequence (Q6XUX3 1-929): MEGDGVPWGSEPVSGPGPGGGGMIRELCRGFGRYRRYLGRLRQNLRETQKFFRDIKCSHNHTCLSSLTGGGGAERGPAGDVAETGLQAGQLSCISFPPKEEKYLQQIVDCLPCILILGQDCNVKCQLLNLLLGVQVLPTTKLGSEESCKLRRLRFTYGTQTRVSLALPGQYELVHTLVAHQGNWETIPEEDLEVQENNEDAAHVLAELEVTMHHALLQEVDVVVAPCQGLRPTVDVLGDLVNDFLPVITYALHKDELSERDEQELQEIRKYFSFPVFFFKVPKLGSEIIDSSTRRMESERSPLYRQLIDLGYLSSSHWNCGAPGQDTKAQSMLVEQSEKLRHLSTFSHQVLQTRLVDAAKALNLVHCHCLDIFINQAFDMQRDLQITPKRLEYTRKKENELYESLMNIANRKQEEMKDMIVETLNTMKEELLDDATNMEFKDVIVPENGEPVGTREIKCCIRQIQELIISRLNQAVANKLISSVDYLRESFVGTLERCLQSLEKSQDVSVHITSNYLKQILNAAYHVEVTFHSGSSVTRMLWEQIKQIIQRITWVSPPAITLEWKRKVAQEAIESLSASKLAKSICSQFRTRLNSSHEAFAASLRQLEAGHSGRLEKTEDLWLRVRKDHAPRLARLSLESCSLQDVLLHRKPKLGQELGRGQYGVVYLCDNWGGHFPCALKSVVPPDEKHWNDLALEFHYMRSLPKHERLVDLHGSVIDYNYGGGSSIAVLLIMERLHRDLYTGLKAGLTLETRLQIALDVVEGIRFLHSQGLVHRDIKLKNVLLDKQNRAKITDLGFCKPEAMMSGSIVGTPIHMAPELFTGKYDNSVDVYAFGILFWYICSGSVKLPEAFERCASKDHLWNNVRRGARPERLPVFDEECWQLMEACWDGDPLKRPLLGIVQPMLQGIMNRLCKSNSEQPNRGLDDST

[4] = target: kinases (KINOMEscan panel) (Homo sapiens, UniProt Q9UBF8); details: kinase PI4KB; Published KINOMEscan; ref original PKIS2 published data; cited from earlier work
Sequence of kinases (KINOMEscan panel) (Homo sapiens, UniProt Q9UBF8) (Q9UBF8 whole entry): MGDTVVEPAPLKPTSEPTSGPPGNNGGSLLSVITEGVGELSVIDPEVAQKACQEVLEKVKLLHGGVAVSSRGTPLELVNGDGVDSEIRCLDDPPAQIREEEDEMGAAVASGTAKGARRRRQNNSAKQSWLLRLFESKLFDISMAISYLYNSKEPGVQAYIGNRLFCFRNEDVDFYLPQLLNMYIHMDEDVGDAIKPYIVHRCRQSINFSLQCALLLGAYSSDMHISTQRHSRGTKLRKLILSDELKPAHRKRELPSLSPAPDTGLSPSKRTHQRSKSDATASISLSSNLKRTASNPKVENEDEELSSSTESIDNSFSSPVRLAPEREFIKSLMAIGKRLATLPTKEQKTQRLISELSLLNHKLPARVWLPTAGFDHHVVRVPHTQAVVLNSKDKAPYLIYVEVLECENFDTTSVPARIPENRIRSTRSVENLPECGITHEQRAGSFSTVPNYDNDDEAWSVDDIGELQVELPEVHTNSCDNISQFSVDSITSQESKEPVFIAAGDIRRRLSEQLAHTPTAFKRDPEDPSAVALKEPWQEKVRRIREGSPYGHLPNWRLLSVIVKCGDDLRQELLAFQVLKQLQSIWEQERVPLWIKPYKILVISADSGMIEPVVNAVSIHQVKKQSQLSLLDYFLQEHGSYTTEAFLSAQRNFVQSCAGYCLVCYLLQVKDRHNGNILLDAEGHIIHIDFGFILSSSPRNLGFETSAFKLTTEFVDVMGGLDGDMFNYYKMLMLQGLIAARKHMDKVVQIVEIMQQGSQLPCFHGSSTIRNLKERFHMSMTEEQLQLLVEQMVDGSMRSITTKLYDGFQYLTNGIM

[5] = target: kinases (KINOMEscan panel) (Homo sapiens, UniProt Q13464); details: ROCK1; Published KINOMEscan; ref original PKIS2 published data; cited from earlier work
Sequence of kinases (KINOMEscan panel) (Homo sapiens, UniProt Q13464) (Q13464 whole entry): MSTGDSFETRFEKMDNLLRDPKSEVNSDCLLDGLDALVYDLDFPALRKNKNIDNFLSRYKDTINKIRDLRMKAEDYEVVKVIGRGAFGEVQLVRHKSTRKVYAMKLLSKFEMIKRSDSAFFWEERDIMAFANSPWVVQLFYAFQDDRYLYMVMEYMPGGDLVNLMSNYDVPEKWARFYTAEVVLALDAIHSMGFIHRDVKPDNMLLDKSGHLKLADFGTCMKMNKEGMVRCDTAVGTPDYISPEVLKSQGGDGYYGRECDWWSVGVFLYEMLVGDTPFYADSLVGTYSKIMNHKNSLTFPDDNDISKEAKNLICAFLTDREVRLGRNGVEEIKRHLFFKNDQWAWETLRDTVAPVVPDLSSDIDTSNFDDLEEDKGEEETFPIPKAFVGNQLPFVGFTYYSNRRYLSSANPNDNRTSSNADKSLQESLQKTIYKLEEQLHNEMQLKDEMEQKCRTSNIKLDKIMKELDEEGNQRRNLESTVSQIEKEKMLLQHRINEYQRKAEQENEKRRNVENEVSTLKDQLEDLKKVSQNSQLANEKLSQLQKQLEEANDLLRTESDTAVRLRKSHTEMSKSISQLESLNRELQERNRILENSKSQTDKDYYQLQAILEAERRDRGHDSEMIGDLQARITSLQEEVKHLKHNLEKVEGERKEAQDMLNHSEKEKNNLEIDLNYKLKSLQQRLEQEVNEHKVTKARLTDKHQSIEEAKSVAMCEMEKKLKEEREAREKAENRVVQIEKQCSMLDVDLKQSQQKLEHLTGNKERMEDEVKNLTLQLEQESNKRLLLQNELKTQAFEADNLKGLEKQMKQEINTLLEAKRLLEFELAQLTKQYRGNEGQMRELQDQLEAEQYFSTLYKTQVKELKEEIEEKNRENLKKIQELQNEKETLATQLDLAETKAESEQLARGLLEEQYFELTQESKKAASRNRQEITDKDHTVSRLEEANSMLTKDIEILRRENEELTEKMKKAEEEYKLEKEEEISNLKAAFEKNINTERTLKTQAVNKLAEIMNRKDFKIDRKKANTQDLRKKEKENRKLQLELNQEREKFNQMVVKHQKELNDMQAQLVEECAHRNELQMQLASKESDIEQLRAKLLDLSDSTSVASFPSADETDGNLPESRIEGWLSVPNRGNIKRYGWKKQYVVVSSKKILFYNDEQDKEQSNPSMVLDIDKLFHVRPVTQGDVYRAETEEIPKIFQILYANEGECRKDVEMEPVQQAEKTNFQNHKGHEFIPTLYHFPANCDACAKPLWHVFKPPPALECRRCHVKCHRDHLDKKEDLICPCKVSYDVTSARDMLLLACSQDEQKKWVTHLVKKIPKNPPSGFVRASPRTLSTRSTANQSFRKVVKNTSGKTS

[6] = target: kinases (KINOMEscan panel) (Homo sapiens, UniProt P06213); details: kinase INSR; Published KINOMEscan; ref original PKIS2 published data; cited from earlier work
Sequence of kinases (KINOMEscan panel) (Homo sapiens, UniProt P06213) (P06213 28-1382): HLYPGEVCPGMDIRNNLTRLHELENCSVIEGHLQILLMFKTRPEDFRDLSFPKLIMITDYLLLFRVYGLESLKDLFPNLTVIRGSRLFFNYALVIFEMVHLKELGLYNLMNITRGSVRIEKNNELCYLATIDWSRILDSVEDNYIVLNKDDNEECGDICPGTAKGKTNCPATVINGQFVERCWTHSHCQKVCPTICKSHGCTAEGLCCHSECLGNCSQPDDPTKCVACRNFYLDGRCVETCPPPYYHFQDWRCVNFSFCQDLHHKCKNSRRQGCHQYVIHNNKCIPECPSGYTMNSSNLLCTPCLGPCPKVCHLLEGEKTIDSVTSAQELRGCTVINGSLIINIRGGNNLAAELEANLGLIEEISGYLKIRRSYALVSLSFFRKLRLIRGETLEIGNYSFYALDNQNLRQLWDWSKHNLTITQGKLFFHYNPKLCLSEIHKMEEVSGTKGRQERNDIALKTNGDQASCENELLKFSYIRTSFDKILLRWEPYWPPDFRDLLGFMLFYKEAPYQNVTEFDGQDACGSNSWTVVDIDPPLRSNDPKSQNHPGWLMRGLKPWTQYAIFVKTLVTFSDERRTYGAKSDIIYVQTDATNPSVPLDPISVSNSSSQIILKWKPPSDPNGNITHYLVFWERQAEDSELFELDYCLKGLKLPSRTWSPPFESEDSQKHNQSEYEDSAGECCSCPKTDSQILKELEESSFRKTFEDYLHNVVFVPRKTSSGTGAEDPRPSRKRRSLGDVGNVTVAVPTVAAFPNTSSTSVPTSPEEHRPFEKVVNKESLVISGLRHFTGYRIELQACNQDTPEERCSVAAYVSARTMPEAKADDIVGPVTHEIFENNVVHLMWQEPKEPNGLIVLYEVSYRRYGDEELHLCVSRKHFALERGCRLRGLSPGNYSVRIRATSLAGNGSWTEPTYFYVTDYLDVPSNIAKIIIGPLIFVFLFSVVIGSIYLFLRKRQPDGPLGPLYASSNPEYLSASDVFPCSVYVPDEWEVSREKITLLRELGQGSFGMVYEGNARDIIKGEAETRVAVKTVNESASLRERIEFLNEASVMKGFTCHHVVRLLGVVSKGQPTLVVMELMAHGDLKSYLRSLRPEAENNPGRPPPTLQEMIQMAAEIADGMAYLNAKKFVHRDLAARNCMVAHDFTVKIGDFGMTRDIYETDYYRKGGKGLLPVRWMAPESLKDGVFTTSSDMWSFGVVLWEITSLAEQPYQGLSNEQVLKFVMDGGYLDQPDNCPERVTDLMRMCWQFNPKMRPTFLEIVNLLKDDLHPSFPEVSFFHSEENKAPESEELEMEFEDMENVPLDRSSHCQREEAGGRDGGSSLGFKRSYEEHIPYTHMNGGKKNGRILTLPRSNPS

[7] = target: kinases (KINOMEscan panel) (Homo sapiens, UniProt Q13554); details: kinase CAMK2B; Published KINOMEscan; ref original PKIS2 published data; cited from earlier work
Sequence of kinases (KINOMEscan panel) (Homo sapiens, UniProt Q13554) (Q13554 whole entry): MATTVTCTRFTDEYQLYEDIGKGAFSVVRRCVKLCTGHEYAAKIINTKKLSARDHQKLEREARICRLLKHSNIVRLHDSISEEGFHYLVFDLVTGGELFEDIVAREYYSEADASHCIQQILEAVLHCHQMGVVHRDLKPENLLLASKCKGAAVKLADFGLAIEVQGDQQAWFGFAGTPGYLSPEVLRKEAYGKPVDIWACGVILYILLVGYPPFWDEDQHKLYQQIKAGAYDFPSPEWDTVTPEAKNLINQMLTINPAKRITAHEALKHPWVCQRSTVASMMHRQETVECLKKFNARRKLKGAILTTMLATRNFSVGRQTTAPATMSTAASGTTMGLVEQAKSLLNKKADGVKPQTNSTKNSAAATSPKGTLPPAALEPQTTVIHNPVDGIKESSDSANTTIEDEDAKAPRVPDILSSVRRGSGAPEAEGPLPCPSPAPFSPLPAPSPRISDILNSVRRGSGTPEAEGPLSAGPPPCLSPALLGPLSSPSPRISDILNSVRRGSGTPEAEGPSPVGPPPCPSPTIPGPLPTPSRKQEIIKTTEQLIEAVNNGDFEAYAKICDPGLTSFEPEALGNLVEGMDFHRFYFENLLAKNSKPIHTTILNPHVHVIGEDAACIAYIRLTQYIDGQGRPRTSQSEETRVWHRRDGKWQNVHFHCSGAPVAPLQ

[8] = target: kinases (KINOMEscan panel) (Homo sapiens, UniProt Q86V86); details: kinase PIM3; Published KINOMEscan; ref original PKIS2 published data; cited from earlier work

Cc1cccc(-c2nc(Nc3ccncc3)c3ccccc3n2)n1 [NK215]
KINOMEscan MAP3K15 [1]: 0
KINOMEscan ElF2AK2 [2]: 2
KINOMEscan DSTYK [3]: 0
KINOMEscan PI4KB [4]: 0
KINOMEscan ROCK1 [5]: 0
KINOMEscan INSR [6]: 7
KINOMEscan CAMK2B [7]: 0
KINOMEscan PIM3 [8]: 0
